# ChEMBL document CHEMBL5365530, “Identification of a Novel, Potent, and Orally Bioavailable Guanidine-Based SHP2 Allosteric Inhibitor from Virtual Screening and Rational Structural Optimization for the Treatment of KRAS Mutant Cancers” (J Med Chem, 2023)
# Legend:
# MIA PaCa-2 = assay: Antiproliferative activity against human MIA PaCa-2 cells harboring KRASG12C mutant assessed as inhibition of cell growth incubated for 72 hrs by CellTiter-LumiII Luminescent assay; type: functional, cell-based; settings: MIA PaCa-2, 72 h
# KYSE-520 cell line = assay: Antiproliferative activity against human KYSE-520 cells assessed as inhibition of cell growth incubated for 72 hrs by CellTiter-LumiII Luminescent assay; type: functional, cell-based; settings: KYSE-520, 72 h
# RAW264.7 = assay: Cytotoxicity against mouse RAW264.7 cells assessed as cell viability at 10 to 30 uM incubated for 72 hrs by CellTiter-LumiII Luminescent assay; type: toxicity, cell-based; settings: raw264.7, 72 h, dose 10-30 µM
# [1] = Hepatotoxicity in ICR mouse assessed as increase in plasma AST level at 100 mg/kg, po administered once every 2 days and measured on day 14; type: toxicity, organism-based; settings: in vivo, 336 h, time 14 day
# [2] = Hepatotoxicity in ICR mouse assessed as increase in plasma ALT level at 100 mg/kg, po administered once every 2 days and measured on day 14; type: toxicity, organism-based; settings: in vivo, 336 h, time 14 day
# [3] = Hepatotoxicity in ICR mouse assessed as increase in plasma ALP level at 100 mg/kg, po administered once every 2 days and measured on day 14; type: toxicity, organism-based; settings: in vivo, 336 h, time 14 day
# [4] = molecular target: T1, Tyrosine-protein phosphatase non-receptor type 11 (Homo sapiens, UniProt Q06124); assay: Allosteric Inhibition of H2N-LN(pY)IDLDLV(dPEG8)LST(pY)ASINFQKASINFQK-amide-activated SHP2 (unknown origin) using DiFMUP as substrate pretreated with enzyme for 1 hr followed by substrate addition and measured after 20 mins by fluorescence based analysis
# T1 sequence (Q06124 whole entry): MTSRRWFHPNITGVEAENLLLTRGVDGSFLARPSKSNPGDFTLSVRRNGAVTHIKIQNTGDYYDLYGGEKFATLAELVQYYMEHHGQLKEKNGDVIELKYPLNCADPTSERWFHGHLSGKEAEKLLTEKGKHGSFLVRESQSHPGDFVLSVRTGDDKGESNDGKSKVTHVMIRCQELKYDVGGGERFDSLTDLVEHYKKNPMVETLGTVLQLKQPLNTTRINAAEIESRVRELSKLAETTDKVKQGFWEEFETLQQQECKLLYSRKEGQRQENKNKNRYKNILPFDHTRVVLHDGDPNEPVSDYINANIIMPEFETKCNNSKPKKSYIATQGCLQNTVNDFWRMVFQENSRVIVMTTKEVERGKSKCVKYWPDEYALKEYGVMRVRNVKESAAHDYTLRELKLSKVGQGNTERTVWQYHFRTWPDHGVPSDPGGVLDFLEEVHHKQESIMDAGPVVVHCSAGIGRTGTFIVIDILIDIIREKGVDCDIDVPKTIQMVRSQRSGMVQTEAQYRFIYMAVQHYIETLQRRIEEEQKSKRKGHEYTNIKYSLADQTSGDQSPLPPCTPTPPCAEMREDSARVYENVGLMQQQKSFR
smiles,measurement,setting,value
CC1(N)CCN(c2cnc(-c3cccc(Cl)c3Cl)c(N)n2)CC1,IC50,MIA PaCa-2,41900 nM
same,IC50,KYSE-520 cell line,10800 nM
same,Activity,RAW264.7,Non-Toxic
same,Activity,[1],Toxic
same,Activity,[2],Toxic
same,Activity,[3],Toxic
N#Cc1cc(/N=C(\N)N2CCN(c3cnc(-c4cccc(Cl)c4Cl)c(N)n3)CC2)cs1,IC50,[4],72.8 nM
N#Cc1ccc(/N=C(\N)N2CCN(c3cnc(Sc4cccnc4C(F)(F)F)c(N)n3)CC2)cc1,IC50,[4],159 nM
COc1ccc(/N=C(\N)N2CCN(c3cnc(-c4cccc(Cl)c4Cl)c(N)n3)CC2)cc1,IC50,[4],52.7 nM
N/C(=N\c1cnccn1)N1CCN(c2cnc(-c3cccc(Cl)c3Cl)c(N)n2)CC1,IC50,[4],396 nM
CN(CCN(C)c1cnc(-c2cccc(Cl)c2Cl)c(N)n1)C(=N)N,IC50,[4],6250 nM
N/C(=N\c1cccs1)N1CCN(c2cnc(-c3cccc(Cl)c3Cl)c(N)n2)CC1,IC50,[4],252 nM
N=C(N)N1CCN(c2cnc(-c3cccc(Cl)c3Cl)c(N)n2)C(=O)C1,IC50,[4],> 10000 nM
CN/C(=N\c1ccc(C#N)cc1)N1CCN(c2cnc(-c3cccc(Cl)c3Cl)c(N)n2)CC1,IC50,[4],2000 nM
N/C(=N\c1ccccn1)N1CCN(c2cnc(-c3cccc(Cl)c3Cl)c(N)n2)CC1,IC50,[4],184 nM
N/C(=N\c1ncccn1)N1CCN(c2cnc(-c3cccc(Cl)c3Cl)c(N)n2)CC1,IC50,[4],715 nM
N#Cc1ccc(/N=C(\N)N2CCN(c3cnc(-c4cccc(Cl)c4Cl)c(N)n3)CC2)cc1,IC50,[4],34.6 nM
N/C(=N\C(=O)c1ccncc1)N1CCN(c2cnc(-c3cccc(Cl)c3Cl)c(N)n2)CC1,IC50,[4],4850 nM
N/C(=N\c1ccccc1)N1CCN(c2cnc(-c3cccc(Cl)c3Cl)c(N)n2)CC1,IC50,[4],137 nM
NC(=O)N1CCN(c2cnc(-c3cccc(Cl)c3Cl)c(N)n2)CC1,IC50,[4],6360 nM
